Data: patent US20260130845A1, “KETAMINE NASAL SPRAY FORMULATION AND METHODS OF USE” (INESKET LLC, priority 2024, published 2026)

Experiments:
[1] = Open-label absolute bioavailability and pharmacokinetic study of intranasal ketamine in healthy volunteers; assay type: in vivo, human; conditions: hydro-alcoholic composition, minimum-maximum
Description: This was an open-label study in 25 healthy volunteers. Subjects received single doses of ketamine by intravenous (IV) injection (20 mg), intramuscular (IM) injection (20 mg), or intranasal (IN) administration (20 mg, 40 mg and 80 mg).
Blood samples for the measurement of plasma concentrations of (R)- and (S)-ketamine and (R)- and (S)-norketamine were collected pre-dose and at 0.033, 0.083, 0.167, 0.25, 0.333, 0.5, 0.75, 1, 1.25, 2, 2.5, 3, 4, 6, 8, 12, 16, and 24 hours post-dose for each study period.
All estimates for the parent and metabolite were consistent within each formulation or dose for the racemate, (R)-, and (S)-enantiomers. After IN administration, the estimates were slightly higher for the metabolite than the parent.

[2] = acidic pH near 4.5
Description: A Buffer may be used to control the pH of the nasal spray solution at, or near 4.5. […] Also, the local pH value inside the nasal cavity directly influences the rate and extent of drug absorption. […] Additionally, maintaining pH at or above 4.0 helps to reduce local nasal tract irritation. The buffer is optional.

Structure (SMILES) | AUC(0-1 hr) ([1]; dose 20 mg) | AUC(0-4 hr) ([1]; dose 20 mg) | Tmax ([1]; dose 20 mg) [min] | AUC(0-1 hr) ([1]; dose 40 mg) | AUC(0-4 hr) ([1]; dose 40 mg) | Tmax ([1]; dose 40 mg) [min] | AUC(0-1 hr) ([1]; dose 10 mg) | AUC(0-4 hr) ([1]; dose 10 mg) | Tmax ([1]; dose 10 mg) [min] | stability of solutions [2]
CNC1(c2ccccc2Cl)CCCCC1=O (racemic) [(RS)-Ketamine, 2-(2-chlorophenyl)-2-(methylamino)-cyclohexanone] | 28.7-127 hr′ ng/mL | 60.0-209 hr′ ng/mL | 4.98 to 30 | 71.4-225 hr′ ng/mL | 160-433 hr′ ng/mL | 10 to 30 | – | – | – | –
CN[C@@]1(c2ccccc2Cl)CCCCC1=O [(R)-Ketamine] | 40.5-129 hr′ ng/mL | 93.0-251 hr′ ng/mL | – | – | – | – | 15.9-70.8 hr′ ng/mL | 33.6-118 hr′ ng/mL | – | –
CN[C@]1(c2ccccc2Cl)CCCCC1=O [(S)-Ketamine] | 30.9-96.7 hr′ ng/mL | 66.9-181 hr′ ng/mL | 10 to 30 | – | – | – | 12.8-55.8 hr′ ng/mL | 26.4-90.4 hr′ ng/mL | 5 to 20 | –
CNC1(c2ccccc2Cl)CCCCC1=O.Cl (centres unmarked) [Es/ketamine HCl] | – | – | – | – | – | – | – | – | – | better stability
